From US7022737B2, “Manipulating nitrosative stress to kill pathologic microbes, pathologic helminths and pathologically proliferating cells or to upregulate nitrosative stress defenses” (Duke University, priority 1996, dated 2006)

Legend:
Giardia lamblia = experiment: Patient with Giardia lamblia infection; assay type: in vivo; settings: 4 mmol/kg four times a day p.o. with metronidazole 500 mg twice a day p.o. for five days
herpes labialis = experiment: Patient with recurrent herpes labialis; assay type: in vivo; settings: in Denavir (pencicyclovir cream), topically every two hours while awake
From the text: A homosexually active person developed a recurrent herpes labialis (cold sore) on their lips and face. Therapy with Denavir (pencicyclovir cream) that contains buthionine sulfoximine is applied topically every two hours while awake.

[1] = target: T1, gamma-glutamylcysteinyl synthetase (gamma-GCS) (Rattus norvegicus, UniProt P19468); settings: mammalian systems, literature; cited from earlier work
T1 sequence (P19468 1-637): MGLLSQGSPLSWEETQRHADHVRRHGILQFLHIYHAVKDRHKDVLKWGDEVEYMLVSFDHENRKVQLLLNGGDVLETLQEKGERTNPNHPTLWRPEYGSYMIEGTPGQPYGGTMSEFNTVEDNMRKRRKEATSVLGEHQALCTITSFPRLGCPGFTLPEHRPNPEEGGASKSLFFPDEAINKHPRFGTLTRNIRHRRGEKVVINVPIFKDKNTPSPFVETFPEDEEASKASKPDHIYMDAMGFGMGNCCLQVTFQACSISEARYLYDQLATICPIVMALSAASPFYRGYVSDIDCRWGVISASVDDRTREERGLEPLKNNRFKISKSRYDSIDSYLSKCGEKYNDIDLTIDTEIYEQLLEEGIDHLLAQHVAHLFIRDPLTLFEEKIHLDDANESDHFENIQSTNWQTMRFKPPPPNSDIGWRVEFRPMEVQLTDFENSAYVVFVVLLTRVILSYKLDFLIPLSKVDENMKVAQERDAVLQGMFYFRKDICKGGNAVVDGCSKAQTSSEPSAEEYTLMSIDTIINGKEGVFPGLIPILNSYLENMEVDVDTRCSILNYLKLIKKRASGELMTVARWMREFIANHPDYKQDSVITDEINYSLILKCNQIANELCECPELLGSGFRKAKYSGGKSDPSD
T1 sequence (P48508 1-274 partner): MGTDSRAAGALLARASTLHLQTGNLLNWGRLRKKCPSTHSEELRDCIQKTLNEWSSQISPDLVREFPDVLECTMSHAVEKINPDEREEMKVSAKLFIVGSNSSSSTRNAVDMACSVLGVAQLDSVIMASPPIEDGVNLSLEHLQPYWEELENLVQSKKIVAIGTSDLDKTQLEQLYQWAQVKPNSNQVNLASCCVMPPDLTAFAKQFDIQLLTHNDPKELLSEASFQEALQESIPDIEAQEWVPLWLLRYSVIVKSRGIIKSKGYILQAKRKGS

For `CCCCS(=N)(=O)CC[C@H](N)C(=O)O` (stereo partly drawn) [L-buthionine-S-sulfoximine], the clinical outcome (Giardia lamblia) is given as “stool culture becomes negative for Giardia after five days”, the “mean duration of the lesion versus Denavir without BSO” value (herpes labialis) is given as “half the time shorter” and the “inhibition of gamma-GCS” value [1] is given as “most effectively inhibited”.
